Where two headings read alike, the source gives them in different places. One block for each molecule: values may come before it.
Key:
[1] = Microsomal stability assay; format: in vitro ADME, rat; conditions: 10 μM, rat liver microsomes, 37 °C; 41 n = 3, 7-EC n = 1
[2] = target: T1, human PPARα ligand-binding domain (Gal4 chimera) (Homo sapiens, UniProt Q07869); experiment: Gal4 hybrid reporter gene assay, PPARα; format: cell-based; design: Emax: dose or concentration left out as unconfirmed; conditions: for EC50: EC50 [μM] PPARα; for Emax: read-out: max. rel. act. PPARα
T1 construct: coding for the hinge region and LBD of the canonical isoform of the respective nuclear receptor; expressed in transfected cells; host or cells: HEK293T
T1 sequence (Q07869 239-466 limits assumed): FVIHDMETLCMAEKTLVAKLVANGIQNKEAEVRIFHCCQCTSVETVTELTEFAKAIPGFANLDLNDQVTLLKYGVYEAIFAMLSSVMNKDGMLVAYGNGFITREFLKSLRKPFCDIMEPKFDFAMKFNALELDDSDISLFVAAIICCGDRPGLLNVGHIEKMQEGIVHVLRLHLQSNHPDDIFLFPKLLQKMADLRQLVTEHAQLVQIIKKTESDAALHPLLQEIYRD

[3] = target: T2, human PPARδ ligand-binding domain (Gal4 chimera) (Homo sapiens, UniProt Q03181); experiment: Gal4 hybrid reporter gene assay, PPARδ; format: cell-based; design: Emax: dose or concentration left out as unconfirmed; conditions: for Emax: read-out: max. rel. act. PPARδ
T2 construct: coding for the hinge region and LBD of the canonical isoform of the respective nuclear receptor; expressed in transfected cells; host or cells: HEK293T
T2 sequence (Q03181 211-439 limits assumed): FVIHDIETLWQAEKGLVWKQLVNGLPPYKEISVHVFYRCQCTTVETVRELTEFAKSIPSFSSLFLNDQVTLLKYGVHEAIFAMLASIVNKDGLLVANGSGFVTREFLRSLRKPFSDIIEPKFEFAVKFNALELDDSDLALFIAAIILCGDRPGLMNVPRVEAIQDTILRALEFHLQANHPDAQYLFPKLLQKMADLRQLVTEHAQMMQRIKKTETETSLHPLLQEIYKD

[4] = target: T3, human FXR:retinoid X receptor (RXR) heterodimer (Homo sapiens, UniProt Q96RI1); experiment: Full-length FXR reporter gene assay (BSEP response element) in HeLa cells; format: cell-based; design: Emax: dose or concentration left out as unconfirmed; conditions: for Emax: read-out: max. rel. act. FXR
T3 construct: pcDNA3-hFXR[32] and pSG5-hRXR[33] served for receptor overexpression in the full-length FXR assay; expressed in transfected cells; host or cells: HeLa
T3 sequence (P19793 whole entry): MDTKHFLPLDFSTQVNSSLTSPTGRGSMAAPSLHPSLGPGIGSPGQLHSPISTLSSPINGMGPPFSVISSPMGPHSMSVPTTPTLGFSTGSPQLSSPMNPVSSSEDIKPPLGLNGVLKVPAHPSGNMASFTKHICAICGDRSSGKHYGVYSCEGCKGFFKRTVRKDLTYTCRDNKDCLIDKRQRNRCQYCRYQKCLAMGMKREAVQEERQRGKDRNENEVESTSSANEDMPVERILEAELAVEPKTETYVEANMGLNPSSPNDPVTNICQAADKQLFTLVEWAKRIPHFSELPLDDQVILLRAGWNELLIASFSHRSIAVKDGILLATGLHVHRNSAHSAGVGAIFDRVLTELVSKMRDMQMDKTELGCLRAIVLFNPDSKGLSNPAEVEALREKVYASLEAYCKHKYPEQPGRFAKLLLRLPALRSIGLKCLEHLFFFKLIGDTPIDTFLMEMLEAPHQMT
T3 sequence (Q96RI1 whole entry): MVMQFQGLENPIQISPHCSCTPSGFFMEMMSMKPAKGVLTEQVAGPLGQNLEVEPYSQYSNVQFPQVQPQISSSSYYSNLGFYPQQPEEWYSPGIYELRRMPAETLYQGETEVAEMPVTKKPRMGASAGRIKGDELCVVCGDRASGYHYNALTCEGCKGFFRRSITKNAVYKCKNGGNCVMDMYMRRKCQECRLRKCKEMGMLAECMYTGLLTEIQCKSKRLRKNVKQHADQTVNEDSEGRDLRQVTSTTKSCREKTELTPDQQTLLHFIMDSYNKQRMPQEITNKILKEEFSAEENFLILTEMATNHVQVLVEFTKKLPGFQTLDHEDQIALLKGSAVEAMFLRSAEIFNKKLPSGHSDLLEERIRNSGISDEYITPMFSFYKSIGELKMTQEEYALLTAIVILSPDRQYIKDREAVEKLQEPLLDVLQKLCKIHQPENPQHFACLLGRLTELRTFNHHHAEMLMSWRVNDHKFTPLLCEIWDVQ

[5] = target: T4, human PPARγ ligand-binding domain (Gal4 chimera) (Homo sapiens, UniProt P37231); experiment: Gal4 hybrid reporter gene assay, PPARγ; format: cell-based; design: Emax: dose or concentration left out as unconfirmed; conditions: for Emax: read-out: max. rel. act. PPARγ
T4 construct: coding for the hinge region and LBD of the canonical isoform of the respective nuclear receptor; expressed in transfected cells; host or cells: HEK293T
T4 sequence (P37231 238-503 limits assumed): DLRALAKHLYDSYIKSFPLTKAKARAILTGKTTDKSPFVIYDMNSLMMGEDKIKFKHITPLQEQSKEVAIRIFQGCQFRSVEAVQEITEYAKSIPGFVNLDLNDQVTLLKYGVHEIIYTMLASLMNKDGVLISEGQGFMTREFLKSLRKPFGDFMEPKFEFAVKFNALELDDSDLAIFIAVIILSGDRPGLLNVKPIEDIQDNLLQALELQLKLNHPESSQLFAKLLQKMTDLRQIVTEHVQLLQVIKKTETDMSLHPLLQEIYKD

[6] = EC50 [μM] PPARδ, HEK293T, mean ± SEM, n = 3
[7] = HeLa, mean ± SEM, n = 3, read-out: EC50 [μM] FXR
[8] = HEK293T, mean ± SEM, n = 3, read-out: EC50 [μM] PPARδ
[9] = HEK293T, mean ± SEM, n = 3, read-out: EC50 [μM] PPARγ

percent of remaining compound, 15 min [1]: 87%
percent of remaining compound, 30 min [1]: 75%
percent of remaining compound, 60 min [1]: 55%
SMILES: CCOc1ccc2ccc(=O)oc2c1 [7-EC, 7-Ethoxycoumarin, reference compound]

SMILES: COc1ccc(C(=O)Nc2cccc(CCC(=O)O)c2)c(NC(=O)c2ccc3ccccc3c2)c1 [compound 22]
EC50 ([2]; HEK293T, mean ± SEM, n = 3): 0.3 ± 0.04 µM
Emax [2]: 43%
EC50 [3, 6]: 0.06 ± 0.01 µM
Emax [3]: 32%
Emax ([4]; HeLa): 22%
EC50 [4, 7]: 11 ± 3 µM
EC50 [5]: 1.3 ± 0.1 µM
Emax [5]: 27%

SMILES: O=C(O)CCc1cccc(NC(=O)c2ccc(OC(F)(F)F)cc2NC(=O)c2ccc3ccccc3c2)c1 [compound 23]
EC50 ([2]; HEK293T, mean ± SEM, n = 3): 1.1 ± 0.3 µM
Emax [2]: 31%
EC50 [3, 6]: 0.38 ± 0.06 µM
Emax [3]: 30%
EC50 [4]: 1.1 ± 0.1 µM
Emax ([4]; HeLa): 12%
EC50 [5]: 1 ± 0.2 µM
Emax [5]: 15%

SMILES: O=C(O)CCc1cccc(NC(=O)c2cc(Cl)ccc2NC(=O)c2ccc3ccccc3c2)c1 [compound 25]
EC50 ([2]; HEK293T, mean ± SEM, n = 3): 0.9 ± 0.2 µM
Emax [2]: 42%
EC50 [3, 6]: 0.28 ± 0.03 µM
Emax [3]: 17%
Emax ([4]; HeLa): 12%
EC50 [4, 7]: 2.6 ± 0.4 µM
EC50 [5]: 6 ± 1 µM
Emax [5]: 26%

SMILES: O=C(O)CCc1cccc(NC(=O)c2cc(O)ccc2NC(=O)c2ccc3ccccc3c2)c1 [compound 26]
EC50 ([2]; HEK293T, mean ± SEM, n = 3): 8.9 ± 0.8 µM
Emax [2]: 28%
EC50 [3, 6]: 10 ± 2 µM
Emax [3]: 24%
EC50 [4, 7]: > 10 µM
EC50 [5]: 13 ± 1 µM
Emax [5]: 9%

SMILES: COc1ccc(NC(=O)c2ccc3ccccc3c2)c(C(=O)Nc2cccc(CCC(=O)O)c2)c1 [compound 27]
EC50 ([2]; HEK293T, mean ± SEM, n = 3): 0.23 ± 0.04 µM
Emax [2]: 53%
EC50 [3, 6]: 0.36 ± 0.01 µM
Emax [3]: 23%
EC50 [4, 7]: > 10 µM
EC50 [5]: 2 ± 0.1 µM
Emax [5]: 15%

SMILES: O=C(O)CCc1cccc(NC(=O)c2cc(OC(F)(F)F)ccc2NC(=O)c2ccc3ccccc3c2)c1 [compound 28]
EC50 ([2]; HEK293T, mean ± SEM, n = 3): 0.21 ± 0.02 µM
Emax [2]: 54%
EC50 [3, 6]: 0.1 ± 0.01 µM
Emax [3]: 19%
EC50 [4, 7]: > 10 µM
EC50 [5]: 1.1 ± 0.2 µM
Emax [5]: 18%

SMILES: O=C(O)CCc1cccc(NC(=O)c2cc3c(cc2NC(=O)c2ccc4ccccc4c2)OCO3)c1 [compound 29]
EC50 ([2]; HEK293T, mean ± SEM, n = 3): 0.46 ± 0.03 µM
Emax [2]: 25%
EC50 [3, 6]: 0.4 ± 0.1 µM
Emax [3]: 31%
Emax ([4]; HeLa): 14%
EC50 [4, 7]: 2.9 ± 0.6 µM
EC50 [5]: 0.9 ± 0.3 µM
Emax [5]: 15%

SMILES: O=C(O)CCc1cccc(NC(=O)c2ccccc2NC(=O)c2ccc(-c3ccccc3)cc2)c1 [compound 30]
EC50 ([2]; HEK293T, mean ± SEM, n = 3): > 30 µM
EC50 [3, 8]: 2.5 ± 0.5 µM
Emax [3]: 38%
Emax ([4]; HeLa): 33%
EC50 [4, 7]: 1.3 ± 0.2 µM
EC50 [5, 9]: 1.6 ± 0.2 µM
Emax [5]: 16 ± 10%

SMILES: O=C(O)CCc1cccc(NC(=O)c2ccccc2NC(=O)c2ccc(-c3ccco3)cc2)c1 [compound 31]
EC50 ([2]; HEK293T, mean ± SEM, n = 3): 1.8 ± 0.3 µM
Emax [2]: 22%
EC50 [3, 6]: 0.2 ± 0.01 µM
Emax [3]: 43%
Emax ([4]; HeLa): 23%
EC50 [4, 7]: 5.4 ± 0.1 µM
EC50 [5]: 2.2 ± 0.1 µM
Emax [5]: 9%

SMILES: O=C(O)CCc1cccc(NC(=O)c2ccccc2NC(=O)c2ccc(-c3cccs3)cc2)c1 [compound 33]
EC50 ([2]; HEK293T, mean ± SEM, n = 3): 1.5 ± 0.1 µM
Emax [2]: 27%
EC50 [3, 6]: 0.64 ± 0.06 µM
Emax [3]: 35%
Emax ([4]; HeLa): 21%
EC50 [4, 7]: 1.7 ± 0.4 µM
EC50 [5]: 1.4 ± 0.2 µM
Emax [5]: 11%

SMILES: O=C(O)CCc1cccc(NC(=O)c2ccccc2NC(=O)c2ccc(-c3ccsc3)cc2)c1 [compound 34]
EC50 ([2]; HEK293T, mean ± SEM, n = 3): 1.7 ± 0.1 µM
Emax [2]: 32%
EC50 [3, 6]: 1.6 ± 0.3 µM
Emax [3]: 59%
Emax ([4]; HeLa): 18%
EC50 [4, 7]: 0.6 ± 0.1 µM
EC50 [5]: 1.3 ± 0.2 µM
Emax [5]: 17%

SMILES: O=C(O)CCc1cccc(NC(=O)c2ccccc2NC(=O)c2ccc(-c3ccon3)cc2)c1 [compound 35]
EC50 ([2]; HEK293T, mean ± SEM, n = 3): 8 ± 0.4 µM
Emax [2]: 11%
EC50 [3, 6]: 5.6 ± 0.4 µM
Emax [3]: 29%
Emax ([4]; HeLa): 32%
EC50 [4, 7]: 6.8 ± 0.6 µM
EC50 [5]: 5.8 ± 0.8 µM
Emax [5]: 30%

EC50 [μM] PPARα ([2]; HEK293T, mean ± SEM, n = 3): Unstable
EC50 [μM] PPARδ ([3]; HEK293T, mean ± SEM, n = 3): Unstable
EC50 [μM] PPARγ ([5]; HEK293T, mean ± SEM, n = 3): Unstable
SMILES: O=C(O)CCc1cccc(NC(=O)c2ccccc2NC(=O)c2ccc(-c3cnoc3)cc2)c1 [compound 36]
EC50 [μM] FXR ([4]; HeLa, mean ± SEM, n = 3): Unstable

SMILES: O=C(O)CCc1cccc(NC(=O)c2ccccc2NC(=O)c2ccc(-c3cocn3)cc2)c1 [compound 37]
EC50 ([2]; HEK293T, mean ± SEM, n = 3): 20 ± 1 µM
Emax [2]: 36%
EC50 [3, 6]: 12 ± 1 µM
Emax [3]: 52%
Emax ([4]; HeLa): 41%
EC50 [4, 7]: 6.9 ± 0.3 µM
EC50 [5]: 6 ± 1 µM
Emax [5]: 15%

SMILES: O=C(O)CCc1cccc(NC(=O)c2ccccc2NC(=O)c2ccc(-c3cnco3)cc2)c1 [compound 38]
EC50 ([2]; HEK293T, mean ± SEM, n = 3): > 30 µM
EC50 [3, 8]: 12 ± 1 µM
Emax [3]: 32%
Emax ([4]; HeLa): 53%
EC50 [4, 7]: 15 ± 4 µM
EC50 [5, 9]: 5.3 ± 0.2 µM
Emax [5]: 16%

EC50 ([2]; HEK293T, mean ± SEM, n = 3): > 10 µM
EC50 [3, 8]: > 10 µM
EC50 [5, 9]: > 30 µM
SMILES: O=C(O)CCc1cccc(NC(=O)c2ccccc2NC(=O)c2ccc(-n3ccnn3)cc2)c1 [compound 39]
EC50 [4, 7]: > 10 µM

SMILES: COc1ccc(C(=O)Nc2cccc(NCC(=O)O)c2)c(NC(=O)c2ccc(-c3ccoc3)cc2)c1 [compound 40, (3-[2-{4-(3-Furyl)benzamido}-4-methoxybenzamido]phenyl)glycine]
EC50 ([2]; HEK293T, mean ± SEM, n = 3): > 30 µM
EC50 [3, 8]: 1.6 ± 0.1 µM
Emax [3]: 54%
Emax ([4]; HeLa): 43%
EC50 [4, 7]: 0.29 ± 0.01 µM
EC50 [5, 9]: 7.7 ± 0.5 µM
Emax [5]: 9%
